{"source": "patent US20070161636A1", "about": "“Method of analyzing physiological function of target substance” (priority 2003, published 2007)", "origin": "cited, not measured here", "note": "Read-outs that look alike come from different tables or passages of the source."}
{"smiles": "O=C1OC2(c3ccccc31)c1cc(Br)c(O)c(Br)c1Oc1c2cc(Br)c(O)c1Br", "note": "[eosin, tetrabromofluorescein]", "values": [{"measurement": "maximum absorption (max λ)", "setting": "in ethanol", "result": 523, "unit": "nm"}, {"measurement": "maximum absorption (max λ)", "setting": "in water", "result": 517, "unit": "nm"}]}
